Experimental data taken from ChEMBL document CHEMBL1142731, “Concentration and pH dependent aggregation of hydrophobic drug molecules and relevance to oral bioavailability” (J Med Chem, 2005).

Tests used:
[1] = pKa value was determined; format: physicochemical
[2] = Area under the concentration time curve in rat after 40 mg/kg oral dosage; format: ADME, organism-based; design: dose 40 mg/kg, route oral; unit not given here; details: in vivo
[3] = Area under the concentration time curve in human after 100 mg/kg oral dosage; format: ADME, organism-based; design: dose 100 mg/kg, route oral; unit not given here; details: in vivo

Row | Structure (SMILES) | pKa [1] | AUC [2] | AUC [3]
1 | N#Cc1ccc(Nc2nc(N)nc(Cc3c(Cl)ccc4[nH]ccc34)n2)cc1 | 3.3 | 67.5 | 
2 | Cc1cc(C#N)cc(C)c1Oc1nc(Nc2ccc(C#N)cc2)ncc1Br | 2.7 |  | 
3 | Cc1cc(C)c(Nc2nc(Nc3ccc(C#N)cc3)ncc2Cl)c(C)c1 | 3.6 |  | 
4 | Cc1cc(C#N)cc(C)c1Nc1ccnc(Nc2ccc(C#N)cc2)n1 | 5.1 | 49.3 | 8.2
5 | Cc1cc(C)c(Nc2ncnc(Nc3ccc(C#N)cc3)n2)c(C)c1 | 2.6 |  | 
6 | Cc1cc(C)c(Nc2nc(N)nc(Nc3ccc(C#N)cc3)n2)c(C)c1 | 3.8 |  | 
7 | Cc1cc(C#N)cc(C)c1Oc1nc(Nc2ccc(C#N)cc2)nc(CO)c1Br | 2 | 0.6 | 
8 | Cc1cc(C#N)cc(C)c1Oc1nc(Nc2ccc(C#N)cc2)nc(N)c1Br [ETRAVIRINE] | 3.5 |  | 

Next, values leading:

Row | pKa [1] | AUC [2] | AUC [3] | Structure (SMILES)
9 | 3.1 | 1.5 |  | N#Cc1ccc(Nc2nc(N)nc(Cc3c(Cl)cccc3Cl)n2)cc1
10 | 1.9 | 0.6 |  | N#Cc1ccc(Nc2nc(N)nc(Oc3c(Cl)cccc3Cl)n2)cc1
11 | 2.5 | 0.1 | 0.1 | N#Cc1ccc(Nc2nc(Cc3c(Cl)cccc3Cl)nc(NO)n2)cc1
12 | 2.8 | 4.4 |  | N#Cc1ccc(Nc2nc(N)nc(Cc3c(Cl)ccc(Cl)c3Cl)n2)cc1
13 |  | 7.3 |  | N#Cc1ccc(Nc2nc(N)cc(Cc3c(Cl)cccc3Cl)n2)cc1
